Data from PubChem BioAssay (NCI).
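Step 1: Grow cells in 96-well plates. Step 2: Expose to compound for 48 hours at 5 concentrations. Step 3: Interpolate endpoints linearly; if unreached, use highest concentration. Definition used: TGI = concentration required for complete inhibition of growth.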

Key:
Experiment in all cases: NCI anticancer screen, dose series, 48 h
[1] = tested on: CCRF-CEM leukemia
[2] = tested on: DLD-1 colon
[3] = tested on: SK-MEL-5 melanoma
[4] = tested on: HOP-62 NSCLC
[5] = tested on: MALME-3M melanoma
[6] = tested on: RXF 393 renal
[7] = tested on: HT29 colon
[8] = tested on: TK-10 renal
[9] = tested on: M14 melanoma
[10] = tested on: MOLT-4 leukemia
[11] = tested on: OVCAR-8 ovarian
[12] = tested on: OVCAR-4 ovarian
[13] = tested on: ACHN renal
[14] = tested on: OVCAR-3 ovarian
[15] = tested on: HOP-18 NSCLC
[16] = tested on: NCI-H460 lung
[17] = tested on: SF-268 CNS
[18] = tested on: HCC-2998 colon
[19] = tested on: M19-MEL melanoma
[20] = tested on: SW-620 colon
[21] = tested on: SN12C renal
[22] = tested on: SNB-78 CNS
[23] = tested on: RXF-631 renal
[24] = tested on: EKVX NSCLC
[25] = tested on: DMS 114 small cell lung
[26] = tested on: HOP-92 NSCLC
[27] = tested on: A498 renal
[28] = tested on: KM12 colon
[29] = tested on: SNB-75 CNS
[30] = tested on: COLO 205 colon
[31] = tested on: IGROV1 ovarian
[32] = tested on: SF-539 CNS
[33] = tested on: UO-31 renal
[34] = tested on: NCI-H23 lung
[35] = tested on: XF 498 CNS
[36] = tested on: UACC-62 melanoma
[37] = tested on: SNB-19 CNS
[38] = tested on: UACC-257 melanoma
[39] = tested on: A549 NSCLC
[40] = tested on: OVCAR-5 ovarian
[41] = tested on: HCT-116 colon
[42] = tested on: SF-295 CNS
[43] = tested on: 786-0 renal
[44] = tested on: SK-MEL-28 melanoma
[45] = tested on: NCI-H226 lung
[46] = tested on: SK-OV-3 ovarian
[47] = tested on: SK-MEL-2 melanoma
[48] = tested on: LXFL 529 NSCLC
[49] = tested on: U251 CNS
[50] = tested on: HL-60(TB) leukemia
[51] = tested on: CAKI-1 renal
[52] = tested on: KM20L2 colon
[53] = tested on: HCT-15 colon
[54] = tested on: DMS 273 small cell lung
[55] = tested on: NCI-H522 lung

Measured: TGI

OC(CCNC12CC3CC(CC(C3)C1)C2)c1ccccc1 (stereo not given)
> 100 µM: all assays above
